# Assay results from US20030129629A1, “Methods and compositions for the identification, assessment, prevention, and therapy of human cancers” (Millennium Pharmaceuticals, Inc., priority 2000, published 2003).
# Several values for one entry are separate records, joined by “and”; a condition that tells them apart may be missing. Identical values can stand only once. Like-named read-outs stand apart in the source and are kept apart here.
# System: 60 cancer cell lines (NCI 60 cancer cell line series)
# Assay: NCI-DTP in vitro cancer screen, sulforhodamine B (SRB) growth inhibition, 48 hour exposure
# Assay type: cell-based, human
# Experimental: Cancer Cell Line Preparation. Sixty cancer cell lines were obtained from the National Cancer Institute Developmental Therapeutics Program (NCI-DTP). Procedures for growing cells and testing compounds have been described previously (Scudiero et al., Cancer Res. 1988, 48:4827-4833; Stinson et al., Anticancer Res.; Myers et al., Electrophoresis 1997, 18:647-653). Cells are plated on day 0 at a density individualized for each cell line so that they will generally be sub-confluent at the end of the assay period. On day 1, a compound is added in the format for a duplicate-well, 5-dose, ten-fold interval dose response study.
# No-drug, no-cell and no-growth controls are included. On day 3 the cells are processed for staining with sulforhodamine B (SRB), which reflects the amount of cell mass present at the end of a 48 hour exposure to the test agent. From dose response curves based on the SRB data, various parameters can be determined. […] More precisely, the quantity used in the calculation to be described is the potency measure −log{GI50}.
# Activity database (A). […] This subset of compounds was selected from the larger 23,000 compound database available from the DTP. The compounds were selected on the basis of their known mechanism of action and chemical structure. The average potency −log{GI50} was extracted from the comma-delimited text files available through the Web at http://www.nci.nih.gov/intra/lmp/jnwbio.html. Subsequently, these −log{GI50} values were inspected manually and classified as indicating either Low, Medium or High sensitivity to each compound.
smiles,measurement,setting,value
O=C(O)CCCc1ccc(N(CCCl)CCCl)cc1 [Chlorambucil],"classification of cell line as Low(1), Medium(2), High(3) sensitivity to compound",,2 and 3 and 1
same,"classification of cell line as Low(1), Medium(2), High(3) sensitivity to compound",Breast BT-549 CL5013,1
same,"classification of cell line as Low(1), Medium(2), High(3) sensitivity to compound",Breast HS-578T CL5006,1
same,"classification of cell line as Low(1), Medium(2), High(3) sensitivity to compound",Breast MCF7(I) CL5001,2
same,"classification of cell line as Low(1), Medium(2), High(3) sensitivity to compound",Breast MCF7/ADRr CL5002,2
same,"classification of cell line as Low(1), Medium(2), High(3) sensitivity to compound",Breast MDA-MB-231 CL5005,1
same,"classification of cell line as Low(1), Medium(2), High(3) sensitivity to compound",Breast MDA-MB-435 CL5011,1
same,"classification of cell line as Low(1), Medium(2), High(3) sensitivity to compound",Breast MDA-N CL5012,1
same,"classification of cell line as Low(1), Medium(2), High(3) sensitivity to compound",Breast T-47D CL5014,2
same,"classification of cell line as Low(1), Medium(2), High(3) sensitivity to compound",Colon COLO-250 CL4010,1
same,"classification of cell line as Low(1), Medium(2), High(3) sensitivity to compound",Colon HCC-2998 CL4002,1
same,"classification of cell line as Low(1), Medium(2), High(3) sensitivity to compound",Colon HCT-15 CL4015,2
same,"classification of cell line as Low(1), Medium(2), High(3) sensitivity to compound",Colon HCT-116 CL4003,1
same,"classification of cell line as Low(1), Medium(2), High(3) sensitivity to compound",Colon HT29(I) CL4001,1
same,"classification of cell line as Low(1), Medium(2), High(3) sensitivity to compound",Colon KM12 CL4017,1
same,"classification of cell line as Low(1), Medium(2), High(3) sensitivity to compound",Colon SW-620 CL4009,2
same,"classification of cell line as Low(1), Medium(2), High(3) sensitivity to compound",Leukemia CCRF-CEM(I) CL7003,3
same,"classification of cell line as Low(1), Medium(2), High(3) sensitivity to compound",Leukemia HL-60(I) CL7008,3
same,"classification of cell line as Low(1), Medium(2), High(3) sensitivity to compound",Leukemia K562(I) CL7005,1
same,"classification of cell line as Low(1), Medium(2), High(3) sensitivity to compound",Leukemia MOLT-4 CL7006,3
same,"classification of cell line as Low(1), Medium(2), High(3) sensitivity to compound",Leukemia RPMI-8226(I) CL7010,2
same,"classification of cell line as Low(1), Medium(2), High(3) sensitivity to compound",Leukemia SR CL7019,3
same,"classification of cell line as Low(1), Medium(2), High(3) sensitivity to compound",Melanoma LOX IMVI CL10001,2
same,"classification of cell line as Low(1), Medium(2), High(3) sensitivity to compound",Melanoma M14 CL10014,2
same,"classification of cell line as Low(1), Medium(2), High(3) sensitivity to compound",Melanoma MALME-3M CL10002,2
same,"classification of cell line as Low(1), Medium(2), High(3) sensitivity to compound",Melanoma SK-MEL-2 CL10005,1
same,"classification of cell line as Low(1), Medium(2), High(3) sensitivity to compound",Melanoma SK-MEL-5 CL10007,2
same,"classification of cell line as Low(1), Medium(2), High(3) sensitivity to compound",Melanoma SK-MEL-28 CL10008,1
same,"classification of cell line as Low(1), Medium(2), High(3) sensitivity to compound",Melanoma UACC-62 CL10020,3
same,"classification of cell line as Low(1), Medium(2), High(3) sensitivity to compound",Melanoma UACC-257 CL10021,2
same,"classification of cell line as Low(1), Medium(2), High(3) sensitivity to compound",NSCLC A549/ATCC CL1004,2
same,"classification of cell line as Low(1), Medium(2), High(3) sensitivity to compound",NSCLC EKVX CL1008,1
same,"classification of cell line as Low(1), Medium(2), High(3) sensitivity to compound",NSCLC HOP-62 CL1026,2
same,"classification of cell line as Low(1), Medium(2), High(3) sensitivity to compound",NSCLC HOP-92 CL1029,2
same,sensitivity classification Low(1)/Medium(2)/High(3),NSCLC NCI-H23(I) CL1001,2
same,"classification of cell line as Low(1), Medium(2), High(3) sensitivity to compound",NSCLC NCI-H226 CL1013,2
same,sensitivity classification Low(1)/Medium(2)/High(3),NSCLC NCI-H332M CL1017,1
same,sensitivity classification Low(1)/Medium(2)/High(3),NSCLC NCI-H460 CL1021,3
same,sensitivity classification Low(1)/Medium(2)/High(3),NSCLC NCI-H522 CL1003,2
same,sensitivity classification Low(1)/Medium(2)/High(3),Ovarian IGROV1 CL6010,1
same,sensitivity classification Low(1)/Medium(2)/High(3),Ovarian OVCAR-3 CL6001,1
same,sensitivity classification Low(1)/Medium(2)/High(3),Ovarian OVCAR-4 CL6002,1
same,sensitivity classification Low(1)/Medium(2)/High(3),Ovarian OVCAR-5 CL6003,1
same,sensitivity classification Low(1)/Medium(2)/High(3),Ovarian OVCAR-8 CL6005,2
same,sensitivity classification Low(1)/Medium(2)/High(3),Ovarian SK-OV-3 CL6011,1
same,sensitivity classification Low(1)/Medium(2)/High(3),Prostate DU-145 CL11003,2
same,sensitivity classification Low(1)/Medium(2)/High(3),Prostate PC-3(I) CL11001,1
same,sensitivity classification Low(1)/Medium(2)/High(3),Renal 786-0 CL9018,2
same,sensitivity classification Low(1)/Medium(2)/High(3),Renal A498 CL9013,1
same,sensitivity classification Low(1)/Medium(2)/High(3),Renal ACHN CL9023,3
same,sensitivity classification Low(1)/Medium(2)/High(3),Renal CAKI-1 CL9015,3
same,sensitivity classification Low(1)/Medium(2)/High(3),Renal RXF-393 CL9016,2
same,sensitivity classification Low(1)/Medium(2)/High(3),Renal SN12C CL9008,2
same,sensitivity classification Low(1)/Medium(2)/High(3),Renal TK10 CL9024,1
same,sensitivity classification Low(1)/Medium(2)/High(3),Renal UO-31 CL9004,2
